Source: ChEMBL document CHEMBL1136018, “Synthesis of bis-spermine dimers that are potent polyamine transport inhibitors” (Bioorg Med Chem Lett, 2002)

Key:
MDA-MB-231 [1] = assay: Effective concentration of compound with DFMO tested in vitro for ability to inhibit polyamine transport and growth of MDA-MB-231 breast carcinoma cell line; assay type: functional, cell-based; conditions: Homo sapiens
[2] = Inhibition of SPD uptake by polyamine transporter of MDA-MB-231 breast carcinoma cells; assay type: cell-based
MDA-MB-231 [3] = assay: Effective concentration of compound without DFMO tested in vitro for ability to inhibit polyamine transport and growth of MDA-MB-231 breast carcinoma cell line; Cytotoxic; assay type: functional, cell-based; conditions: Homo sapiens
MDA-MB-231 [4] = assay: Michaelis-Menten constant of compound was determined at MDA-MB-231 cell line mediated by polyamine transporter; assay type: cell-based; conditions: Homo sapiens
MDA-MB-231 [5] = assay: Effective concentration of compound with DFMO tested in vitro for ability to inhibit polyamine transport and growth of MDA-MB-231 breast carcinoma cell line; Cytotoxic; assay type: functional, cell-based; conditions: Homo sapiens

EC50 (MDA-MB-231 [1])	Structure (SMILES)	Ki [2]	EC50 (MDA-MB-231 [3])	Km (MDA-MB-231 [4])	EC50 (MDA-MB-231 [5])
6 µM	NCCCNCCCCNCCCNC(=O)CCCCCC(=O)NCCCNCCCCNCCCN	0.04 µM	–	–	–
> 1000 µM	CC(=O)NCCCNCCCCNCCCN	0.18 µM	–	–	–
3 µM	NCCCNCCCCNCCCNC(=O)CCCCCCCC(=O)NCCCNCCCCNCCCN	0.07 µM	–	–	–
2.2 µM	NCCCNCCCCNCCCNC(=O)CCCCC(=O)NCCCNCCCCNCCCN	0.07 µM	–	–	–
2 µM	NCCCNCCCCNCCCNC(=O)CCC(=O)NCCCNCCCCNCCCN	0.03 µM	–	–	–
3.7 µM	NCCCNCCCCNCCCNC(=O)CCCCCCC(=O)NCCCNCCCCNCCCN	0.06 µM	–	–	–
9 µM	NCCCNCCCCNCCCNC(=O)CCCCCCCCC(=O)NCCCNCCCCNCCCN	0.08 µM	240 µM	–	–
1.6 µM	NCCCNCCCCNCCCNC(=O)CCCC(=O)NCCCNCCCCNCCCN	0.06 µM	–	–	–
–	NCCCCN	–	–	1.28 µM	–
–	NCCCNCCCCNCCCN	–	–	2 µM	–
> 300 µM	NCCCNCCCCNCCCNC(=O)CC12CC3CC(C1)CC(CC(=O)NCCCNCCCCNCCCN)(C3)C2	0.06 µM	–	–	–
–	CCCCCCC(=O)NCCCNCCCCNCCCN	0.28 µM	–	–	63 µM
–	NCCCCNCCCN	–	–	0.11 µM	–
230 µM	NCCCNCCCCNCCCNS(=O)(=O)c1ccc2cc(S(=O)(=O)NCCCNCCCCNCCCN)ccc2c1	0.06 µM	–	–	–
8 µM	NCCCNCCCCNCCCNC(=O)CCCCCCCCCCC(=O)NCCCNCCCCNCCCN	0.03 µM	53 µM	–	–
